Results published in article PMC9317316, “Synthesis and Evaluation of Some New 4H-Pyran Derivatives as Antioxidant, Antibacterial and Anti-HCT-116 Cells of CRC, with Molecular Docking, Antiproliferative, Apoptotic and ADME Investigations” (Pharmaceuticals, 2022).
Where “and” joins values, the source holds several entries; their conditions need not be identical. Identical values can stand only once. Like-named read-outs stand apart in the source and are kept apart here.

Experiments:
[1] = Reducing power assay (FRAC, Fe3+ to Fe2+); details: 0-1 mg/mL, absorbance 700 nm
Description: Secondly, FRAC was determined over the concentration range of 0.0−1 mg/mL via monitoring Fe^3+−Fe^2+ transformation in the presence of the studied compounds and the reference antioxidant BHT to estimate the values of efficient concentration (EC50), expressed in mM.
The reducing power of the studied compounds was assessed according to Oyaizu’s method. Briefly, different concentrations (ranging from 0 to 1 mg/mL) of each tested compound were first mixed with 1 mL of 0.2 M sodium phosphate buffer (pH 6.6) and 1 mL of 1% potassium ferricyanide (K3Fe(CN)6) and incubated at 50 °C for 20 min. After the addition of 1.25 mL of 20% trichloroacetic acid (TCA), the mixture was centrifuged for 10 min at 3000 rpm and the upper layer solution was then mixed with 0.5 mL of 0.1% fresh ferric chloride and an equal volume of deionized water. Finally, the absorption of the resulting mixture was measured at 700 nm using a UV spectrophotometer against distilled water as the blank, while butylated hydroxytoluene (BHT) was used as a positive control. The sample ferric reducing power capability was indicated by increased absorbance.

E. faecalis (ATCC 29122) [2] = test: Antibacterial agar diffusion method (inhibition zone); type: cell-based
Description: (§1) The results for the in vitro antibacterial properties of the synthesized compounds against five Gram-positive and four Gram-negative human-pathogenic strains, which were assessed by both the agar diffusion method (based on inhibition zone (IZ)) and the broth dilution bioassay (for the determination of the half-maximal inhibitory concentration (IC50) values), using ampicillin as the reference antibiotic drug, are shown in Table 2 and Table 3.
(§2) The antibacterial activity of all synthesized compounds was evaluated against the Gram-negative strains E. coli (ATCC 25966), K. pneumonia (ATCC 700603), P. aeruginosa (ATCC 27853) and S. enteric (ATCC 43972) and against the Gram-positive strains B. cereus (ATCC 14579), B. subtilis (ATCC 6633), E. faecalis (ATCC 29122), S. aureus (ATCC 25923) and S. epidermidis (ATCC 14990), using the agar diffusion method through measuring the appearance of the inhibition zone on the surface of the top agar, as reported by Berghe and Vlietinck. Ampicillin (10 µg/well) was used as the positive reference standard. Bacterial viability was also investigated by determining the colony-forming ability (CFU) of bacteria incubated at different time intervals without or with appropriate amounts of the compound, which were mixed with 2 ×10^7 CFU/mL in sterile BHI and incubated under shaking for 60 min at 37 °C. Samples were serially diluted into sterile BHI, streaked onto media agar plates and incubated for 24 h at 37 °C. The antibacterial potency of the tested compounds was expressed as the residual number of CFUs with reference to the initial inoculums. The results presented as the half-maximal (50 %) inhibitory concentration (IC50) values are the means of three different measurements.

[3] = test system: P. aeruginosa (ATCC 27853); test: as above; type: cell-based
Description: as §1, §2

[4] = test system: K. pneumonia (ATCC 700603); test: as above; type: cell-based
Description: as §1, §2

E. coli (ATCC 25966) [5] = test: as above; type: cell-based; details: E. coil (ATCC 25966)
Description: as §1, §2

S. enteric (ATCC 43972) [6] = test: as above; type: cell-based
Description: as §1, §2

S. aureus (ATCC 25923) [7] = test: as above; type: cell-based
Description: as §1, §2

B. cereus (ATCC 14579) [8] = test: as above; type: cell-based
Description: as §1, §2

B. subtilis (ATCC 6633) [9] = test: as above; type: cell-based
Description: as §1, §2

[10] = test system: S. epidermidis (ATCC 14990); test: as above; type: cell-based
Description: as §1, §2

[11] = DPPH radical scavenging assay; details: for IC50: 0.03 to 1 mg/mL, 1 h, mean ± SD, triplicate, read-out: IC50 (mM) for DPPH Scavenging Potency
Description: The IC50 values for DPPH were calculated from the plot of the scavenging effect against the compound concentration.
The compounds’ capacities to scavenge the stable radical 1,1 diphenyl-2-picrylhydrazyl (DPPH) formed in solution by donation of a hydrogen atom or an electron was investigated according to the method described by Bersuder and coworkers. Due to the fact that the initial blue/purple solution of diphenyl picrylhydrazine changes to yellow in the presence of compounds with a capacity to scavenge DPPH free radicals, this reaction is used as a measure of a compound’s ability to scavenge any free radical. Briefly, a 0.5 mL volume of DPPH ethanolic solution was mixed with an equal volume of each sample concentration (0.03 to 1 mg/mL), shaken strongly and incubated at room temperature for 1 h in darkness. The absorbance of the residual DPPH radicals was measured at 519 nm and compared to that of the control (without the tested compound). DPPH radical scavenging was calculated using the following formula: Scavenging effect (%) = (1 − Acompound/AControl) × 100, where Acompound and Acontrol are the absorbances of the tested compound and of the control, respectively. A plot of the scavenging effect (%) versus the sample concentration was also performed to determine the compound concentration providing 50% inhibition (IC50).

E. faecalis (ATCC 29122) [12] = test: Antibacterial viability (CFU) assay, IC50; type: cell-based; details: Enterococcus faecalis, ATCC29122
Description: as §1, §2

[13] = test system: P. aeruginosa (ATCC 27853); test: Antibacterial viability (CFU) assay, IC50; type: cell-based; details: Pseudomonas aeruginosa, ATCC27853
Description: as §1, §2

[14] = test system: K. pneumonia (ATCC 700603); test: Antibacterial viability (CFU) assay, IC50; type: cell-based; details: Klebsiella pneumoniae, ATCC700603
Description: as §1, §2

E. coli (ATCC 25966) [15] = test: Antibacterial viability (CFU) assay, IC50; type: cell-based; details: Escherichia coli, ATCC25966; E. coil (ATCC 25966)
Description: as §1, §2

S. enteric (ATCC 43972) [16] = test: Antibacterial viability (CFU) assay, IC50; type: cell-based; details: read-out: IC50
Description: as §1, §2

S. aureus (ATCC 25923) [17] = test: Antibacterial viability (CFU) assay, IC50; type: cell-based; details: Staphylococcus aureus, ATCC25923
Description: as §1, §2

B. cereus (ATCC 14579) [18] = test: Antibacterial viability (CFU) assay, IC50; type: cell-based; details: Bacillus cereus, ATCC14579
Description: as §1, §2

B. subtilis (ATCC 6633) [19] = test: Antibacterial viability (CFU) assay, IC50; type: cell-based
Description: as §1, §2

[20] = test system: S. epidermidis (ATCC 14990); test: Antibacterial viability (CFU) assay, IC50; type: cell-based; details: Staphylococcus epidermidis, ATCC14990
Description: as §1, §2

HCT-116 cells = test: Cell viability (cytotoxicity, LDH release) assay; type: cell-based; details: Homo sapiens, 24 h; for viability at 100 µg/mL: read-out: percent of viable cells
Description: The synthesized compounds were also examined at four concentrations (10, 25, 50 and 100 µg/mL) for their cytotoxic effects on human colorectal cancer HCT-116 cells after their incubation together for 24 h.
Cytotoxic potency was examined for a human colon cancer cell line HCT-116 (American Type Culture Collection; Manassas, VA, USA) using various amounts of each compound (10, 25, 50 and 100 µg). Samples were diluted in Dulbecco’s Modified Eagle’s Medium, consisting of 10% Fetal Bovine Serum, and added to cells grown and cultured for 24 h in a 5% CO2-humidified incubator at 37 °C. Then, the activity of lactate dehydrogenase released from damaged cells was determined in the collected supernatant aliquots using an ELISA endpoint assay (Benchmark Plus, Bio-Rad, Hercules, CA, USA). As positive and negative controls, respectively, 0.1% Triton X-100 in the assay medium and the assay medium only were used. Cell viability, shown as mean values ± SDs (n = 3), was expressed as a relative percentage of the OD values determined at 600 nm in compound-treated cells and the control.

[21] = Bacillus subtilis, ATCC6633, B. subtilis (ATCC 6633)
[22] = read-out: Mean IC50 (µM) of cytotoxicity
[23] = read-out: Mean IC50 (µg/mL) of cytotoxicity

Structure (SMILES) | EC50 [1] | melting point | IZ (mm) (E. faecalis (ATCC 29122) [2]) | IZ (mm) [3] | IZ (mm) [4] | IZ (mm) (E. coli (ATCC 25966) [5]) | IZ (mm) (S. enteric (ATCC 43972) [6]) | IZ (mm) (S. aureus (ATCC 25923) [7]) | IZ (mm) (B. cereus (ATCC 14579) [8]) | IZ (mm) (B. subtilis (ATCC 6633) [9]) | IZ (mm) [10] | IC50 [11] | DPPH Radical Scavenging Effenciency (%) at 1 mg/mL [11] | IC50 (E. faecalis (ATCC 29122) [12]) | IC50 [13] | IC50 [14] | IC50 (E. coli (ATCC 25966) [15]) | IC50 (S. enteric (ATCC 43972) [16]) | IC50 (S. aureus (ATCC 25923) [17]) | IC50 (B. cereus (ATCC 14579) [18]) | also measured
CC1=C(C(=O)OCc2ccccc2)C(c2ccc(Cl)cc2Cl)C(C#N)=C(N)O1 (stereo not drawn) [4m, 6-Amino-5-cyano-4-(2,4-dichloro-phenyl)-2-methyl-4H-pyran-3-carboxylic acid benzyl ester] | 506 ± 34 µM | 146 to 148 °C | 20.50 ± 0.71 mm | 9.5 ± 0.7 mm | 6.5 ± 0.7 mm | 5.5 ± 0.71 mm | 8.5 ± 0.7 mm | 17.50 mm and 17.50 ± 0.71 mm | 18.50 ± 0.71 mm | 21.50 ± 0.71 mm | 18.50 ± 0.71 mm | 0.421 ± 0.017 mM | 69.00% and 69.0 ± 2.83% | 35.3 ± 2.22 µM | 60.9 ± 2.17 µM | 66.7 ± 2.41 µM | 69.4 ± 2.89 µM | 61.8 ± 2.17 µM | 33.2 ± 1.01 µM | 35.8 ± 1.2 µM | IC50 (B. subtilis (ATCC 6633) [19]; B. subtilis (ATCC 6633)): 32.8 ± 2.05 µM; IC50 (B. subtilis (ATCC 6633) [19]; [21]): 23.6 to 36.8 µM; IC50 [20]: 35 ± 1.88 µM; viability at 100 µg/mL (HCT-116 cells): 11 to 32.5%; IC50 (HCT-116 cells; [22]): 89.3 ± 5.05 µM; IC50 (HCT-116 cells; [23]): 37.1 ± 2.1 µg/mL
Cc1[nH]nc2c1C(c1cccc(O)c1Cl)C(C#N)=C(N)O2 (stereo not drawn) [5a, 6-Amino-4-(2-chloro-3-hydroxy-phenyl)-3-methyl-2,4-dihydro-pyrano[2,3-c]pyrazole-5-carbonitrile] | 363 ± 47 µM | 240 to 242 °C | 10.50 ± 0.71 mm | 5.5 ± 0.7 mm | 6.0 ± 1.4 mm | 2.8 ± 0.21 mm | 4.5 ± 0.7 mm | 14.00 ± 1.40 mm | 12.50 ± 0.71 mm | 12.50 ± 0.71 mm | 13.50 ± 0.71 mm | 0.826 ± 0.092 mM | 45.50 ± 2.12% | 51.9 ± 1.39 µM | 85.9 ± 3.3 µM | 96.5 ± 4.96 µM | 110 ± 5.95 µM | 105 ± 1.32 µM | 43.9 ± 1.39 µM | 62.43 ± 0.46 µM | IC50 (B. subtilis (ATCC 6633) [19]; [21]): 62.43 ± 0.46 µM; IC50 [20]: 54.8 ± 1.88 µM; viability at 100 µg/mL (HCT-116 cells): 11 to 32.5%; IC50 (HCT-116 cells; [22]): 189 ± 10.8 µM; IC50 (HCT-116 cells; [23]): 60 ± 3.28 µg/mL
